Measurements published in patent publication US20210223229A1, “IMMUNE FUNCTION INSPECTION METHOD, CANCER PATIENT CATEGORIZATION METHOD, CANCER TREATMENT EFFICACY PREDICTION METHOD, AGENT FOR INCREASING INTRACELLULAR CALCIUM ION CONCENTRATION, AGENT FOR INCREASING SELECTIVE FUNCTION OF EFFECTOR MEMORY (EM) AND EFFECTOR (EFF) IN TUMOR TISSUE, AND METHOD FOR …” (NATIONAL UNIVERSITY CORPORATION OKAYAMA UNIVERSITY, priority 2016, published 2021).
“Also recorded” adds a separate entry of the source.

What was measured:
[1] = system: glucose transporter (Glut1) in CD8TIL; assay: Glut1 expression versus changes in glucose concentration in CD8TIL, MethA tumor; type: in vivo, BALB/c mice
Method: Syngeneic tumor (MethA) 2×10^6 was intradermally injected to 8-week old BALB/c mice, and administration of metformin (5 mg/mL) was started from Day 7. Three days after the treatment, the tumor-infiltrating T cells (TIL) were separated. After culture in the presence of a culture solution having a glucose concentration of 0, 0.1, 1.2, 6.1, 12.5, or 25 mM at 37° C. for 0, 1, 3, 6 hours, the cells were stained with CD3, CD8, and glucose transporter (Glut1) antibodies, followed by analysis using a flow cytometer (FIG. 9).

[2] = system: tumor-infiltrating CD8T cells; assay: Memory phenotype of antigen-specific tumor-infiltrating CD8T cells and glucose (2-NBDG) uptake in each cell fraction; type: in vivo, C57BL/6 mice
Method: 2×10^5 MO-5 was intradermally inoculated to C57BL/6 mice; 7 days after the transplantation, free-water-drinking oral administration of 5 mg/mL metformin was started. Seven days after the administration (14 days after the transplantation), the tumor tissue was excised, and tumor-infiltrating lymphocytes were separated. After the separation, the lymphocytes were washed with 0.1% BSA/PBS, and staining was performed with antimouse CD8 antibody APC-Cy7, antimouse CD62L antibody BV421, antimouse CD44 antibody PerCP, antimouse KLRG1 antibody APC, and 400 μM 2-NBDG (2-[N-(7-nitrobenz-2-oxa-1,3-diazol-4-yl) amino]-2-deoxy-d-glucose) for 30 minutes at 4° C. After washing with 0.1% BSA/PBS, frequency and memory phenotype (CD44, CD62L, KLRG1) of antigen-specific tumor-infiltrating CD8T cells, and deoxyglucose (2-NBDG) uptake in each cell fraction were analyzed using a flow cytometer (FIG. 2).

[3] = system: Glut1-positive tumor-infiltrating CD8T cells; assay: Multifunctionality of CD8T cells expressing Glut1, MethA tumor; type: in vivo, BALB/c
Method: Tumor (MethA) 2×10^6 was intradermally injected to 8-week old BALB/c, and metformin (5 mg/mL) was continuously given by free-water-drinking from Day 7. Three and 6 days after the treatment (Day 10 and Day 13), the tumor-infiltrating T cells (TIL) were separated. After stimulating culture in the presence of PMA/Ionomycin/Monencin for 6 hours, the cells were stained with anti-CD8 antibody, anti-glucose transporter (Glut1) antibody, and intracellular cytokines (IL-2/TNFα/IFNγ), followed by analysis using a flow cytometer. […] The proportion is increased by metformin administration. These facts indicate that, by confirming the Glut1 expression level in the tumor-infiltrating CD8T cells using a flow cytometer, it is possible to assume the immune status without performing a multifunctionality test. Further, by performing immunotherapy such as metformin administration, and confirming that the Glut1 expression level was increased in the CD8T cells by the therapy, it is possible to determine that the treatment had immune effects.

[4] = system: peripheral blood CD8T cells of cancer patients; assay: Multifunctionality of human CD8T cells under a low glucose condition (intracellular cytokine staining, FACS); type: cell-based; settings: for number of CD8T cells producing three cytokines (IL-2, TNFα, IFNγ): 10 μM metformin 6 hours pre-culture, PMA/ionomycin stimulation
Method: FIG. 4: Analysis of multifunctionality of human CD8T-cells under a low glucose condition. Peripheral blood lymphocytes (PBMC) w/o 10 μM metformin were cultured for 6 hours. Subsequently, after washing, the cells were cultured for 12 hours at each glucose concentration. At the final 6 hours, the cells were cultured with PMA stimulation. After the culture, intracellular cytokine was stained with an antibody, followed by FACS analysis. It was confirmed that the multifunctionality of peripheral blood CD8T cells of cancer patients were recovered by being treated with metformin in advance, even in a low glucose environment, i.e., 1.0 mM.
Cryopreserved human PBMC obtained from cancer patients were thawed and cultured for 6 hours in the presence of FCS(−)RPMI 10 μM metformin. After the culture, the cells were separated and washed with FCS(−)Glc(−)RPMI. After the washing, the cells were subjected to stimulating culture for 6 hours by 50 ng/mL PMA and 2 ionomycin using RPMI containing 0.1, 1, 10 mM Glc in the presence of 1 monensin. The cells were separated and the cell-surface molecules were stained with antihuman CD8 antibody APC-Cy7, followed by a cell permeabilization treatment. The intracellular cytokines were stained with antihuman IL-2 antibody APC and antihuman TNFα antibody BV510, and […] IFNγ antibody FITC, followed by analysis using a flow cytometer (FIG. 4).

mouse CD8T cells = assay: Detection of intracellular calcium ion in mouse tumor-infiltrating and lymph node lymphocytes after metformin administration; type: in vivo, C57BL/6 mice; settings: 5 mg/mL metformin free-water-drinking for 7 days
Method: 2×10^5 MO-5 (OVA-expressing B16 melanoma cell strain) was intradermally inoculated to C57BL/6 mice; 7 days after the transplantation, free-water-drinking oral administration of 5 mg/mL metformin was started. Seven days after the administration (14 days after the transplantation), the lymph node (LN) and the tumor tissue (Tumor) were excised, and the tumor-infiltrating lymphocytes and lymphocytes of the lymph node were collected. After the cells were washed with FCS(−)RPMI, the cells were stained using antimouse CD3 antibody BV510, antimouse CD8 antibody APC-Cy7, 1 Fluo4, and 1 Fura Red for 30 minutes at 37° C. After the staining, the cells were washed with FCS(−)RPMI warmed at 37° C., followed by measurement of the background of intracellular calcium ions by a flow cytometer for 30 seconds. After the background measurement, the cells were immediately stimulated by 100 ng/ml PMA and 5 ionomycin, and the increase in calcium ions in the mouse CD8T cells by stimulation was measured (FIG. 1).

human CD8T cells = assay: Calcium concentration in peripheral blood CD8T cells of cancer patients before and after metformin administration; type: in vivo; settings: stage I, stage IIa and stage IV cancer patients; before vs after metformin
Method: In stage I, stage IIa, and stage IV cancer patients, changes in calcium concentration increase by PMA stimulation before and after metformin administration were measured. Human PBMC (human peripheral blood mononuclear cells) were collected before and after the metformin administration that was performed in accordance with the administration schedule shown in the figure, and subjected to stimulation with 100 ng/mL PMA and 5 ionomycin in the same manner as in Example 3, followed by measurement of calcium ion increase in human CD8T cells as a result of stimulation. Specifically, peripheral blood mononuclear cells (PBMC) were separated from peripheral blood by a gravity separation method, and 1×10^6 lymphocytes were incubated for 30 minutes at 37° C. in the presence of 1 μg/mL anti-human CD8 antibody and 1 μM Fluo4/FuraRed. The incubation was followed by washing with an AIM-V medium. After the washing, AIM-V was added and unstimulated (before stimulation) lymphocytes were collected by FACSCantoII for 20 minutes, thereby collecting baseline data. Thereafter, 100 ng/mL PMA and 2 μM ionomycin were added and stimulation was applied, followed by immediate collection by FACSCantoII, thereby obtaining data after stimulation. Consequently, waveforms according to the cytoplasmic calcium concentrations were detected.

[5] = system: glucose transporter (Glut1) in tumor-infiltrating CD8T cells; assay: Glucose transporter (Glut1) expression in tumor-infiltrating CD8T cells, MethA tumor; type: in vivo, BALB/c; settings: metformin 5 mg/mL free-water-drinking from Day 7; Day 10 and Day 13; with and without PMA stimulation
Method: Tumor (MethA) 2×10^6 was intradermally injected to 8-week old BALB/c, and metformin (5 mg/mL) was continuously given by free-water-drinking from Day 7. Three and 6 days after the treatment (Day 10 and Day 13), the tumor-infiltrating T cells (TIL) were separated and stained with anti-CD8 antibody, and anti-glucose transporter (Glut1) antibody. Further, after stimulating culture in the presence of PMA/Ionomycin/Monencin for 6 hours, the cells were stained with anti-CD8 antibody and anti-glucose transporter (Glut1) antibody, followed by analysis using a flow cytometer.

[6] = system: glucose transporter (Glut1) in CD8TIL; assay: Change in Glut1 expression over time in CD8TIL, MethA tumor; type: in vivo, BALB/c; settings: after 6-hour in-vitro culture; metformin 5 mg/mL from Day 7, 3 days of treatment
Method: Syngeneic tumor MethA (2×10^6) was intradermally injected to 8-week old BALB/c, and administration of metformin (5 mg/mL) and N-acetylcysteine (NAC, 10 mg/mL) was started from Day 7. Three days after the treatment, the tumor-infiltrating T cells (TIL) were separated, and cultured for 0, 1, 3 and 6 hours at 37° C. Therefore, the cells were stained with CD3, CD8, and glucose transporter (Glut1) antibodies, followed by analysis using a flow cytometer (FIG. 8).

[7] = system: OVA-expressing B16 melanoma cell strain MO5
Method: The four types of groups: an untreated group (C), and, 10 days after the tumor cell inoculation, sole use of aspirin, sole use of phenformin (Phen), combined use of aspirin and phenformin, each consisting of 5 mice, were prepared. Phenformin is a biguanide-based drug, like metformin. From Day 10 of the tumor cell inoculation, phenformin contained in a feed in an amount of 0.5% was given. Further, the feed was replaced by a normal feed every four days. Specifically, a phenformin-containing feed was given only on Day 10 to Day 14, and Day 18 to Day 22. A normal feed free of phenformin was given from Day 14 to Day 18, and Day 22 to Day 26. This administration method is based on the fact that there have been fatal cases by everyday administration of phenformin due to side effects.
In contrast, aspirin (600 μg/mL) was given by free water drinking, and the water drinking was continuously performed from Day 10.

[8] = 5 mg/mL metformin free-water-drinking for 7 days, MO-5 tumor

CN(C)C(=N)N=C(N)N [metformin]
up-regulation of GLUT-1 in CD8TIL ([1]; 6-hour in-vitro culture, CD8TIL separated from metformin-administered mice): significant up-regulation
Glut-1 expression in CD8TIL ([1]; glucose concentration 0 mM): does not occur
Glut-1 expression, proportion of CD8TIL ([1]; glucose concentration of 0.1 mM, metformin-administered mice): 14.3%
glycolysis system (2-NBDG uptake) of central memory ([2]; 5 mg/mL metformin): deactivates the glycolysis system
glycolysis system (2-NBDG uptake) of effector (eff) and effector memory (EM) ([2]; 5 mg/mL metformin): activates the glycolysis system
number and proportion of central memory [2, 8]: reduces
numbers and proportions of effector (eff) and effector memory (EM) [2, 8]: increased
proportion of Glut1-positive groups with multifunctionality ([3]; metformin 5 mg/mL free-water-drinking from Day 7, PMA/Ionomycin/Monencin 6 hours): increased
Glut1-positive and multifunctional cell groups per tumor unit ([3]; metformin administration group): increased
number of CD8T cells producing three cytokines (IL-2, TNFα, IFNγ) ([4]; glucose concentration 0.1 mM): no difference
number of CD8T cells producing three cytokines (IL-2, TNFα, IFNγ) ([4]; glucose concentration 1 mM): significantly increased
multifunctionality of peripheral blood CD8T cells of cancer patients ([4]; low glucose environment 1.0 mM, treated with 10 μM metformin in advance): recovered
intracellular calcium concentration by PMA/ionomycin stimulation (mouse CD8T cells; CD8T cells of lymph node (LN), vs non-administration group): the degree of increase was greater
intracellular calcium concentration by PMA/ionomycin stimulation (mouse CD8T cells; CD8T cells of tumor tissue (Tumor), MO-5 tumor): greatly increased
calcium concentration by PMA stimulation in human CD8T cells (human CD8T cells): increase
Glut1-positive group in tumor-infiltrating CD8T cells [5]: conspicuous increase; also recorded: increased
Glut-1 expression in CD8TIL [6]: very high level

[H]/N=C(/N)N/C(=N/[H])NCCc1ccccc1 [phenformin]
side effects of everyday administration ([7]; everyday administration of phenformin): fatal cases
water drinking behaviour ([7]; mouse, in vivo): the mice stopped drinking water
tumor growth inhibitory effects ([7]; phenformin 0.5% in feed Day 10-14 and Day 18-22, aspirin 600 μg/mL free water drinking from Day 10): strong tumor growth inhibitory effects
